Results: patent publication US11891386B2, “Indole compounds and their use” (ARIAGEN, INC., priority 2017, dated 2024)
Like-named read-outs stand apart in the source and are kept apart here.

Tests used:
[1] = tested on: EMT-6 syngeneic mouse tumor model (breast cancer); assay: Anti-tumor activity, EMT-6 syngeneic mouse tumor model; type: in vivo; conditions: for anti-tumor potency, in words / tumor growth and survival, in words / complete tumor regression (CR): EMT-6 model; for anti-tumor potency, in words / tumor growth and survival, in words: 40 mpk
Procedure: (§1) This example describes in vivo studies that evaluated the anti-cancer efficacy of the disclosed indole compounds in syngeneic mouse tumor models. Mice implanted subcutaneously with four types of cancer cells were treated with test indole compounds or vehicle controls as described below.
(§2) A monolayer culture of tumor cells was maintained in vitro in DMEM or RPMI1640 medium supplemented with 10% fetal bovine serum at 37° C. in an atmosphere of 5% CO2. Cells in exponential growth phase were harvested and quantitated by cell counter before tumor inoculation. The cell lines used are described in the table below.
(§3) Four subcutaneous syngeneic mouse tumor models were generated by innoculating female BALB/C or C57BL/6 mice with cancer cells at their right lower or front flank as detailed in the table below:
(§4) Each mouse was inoculated subcutaneously with tumor cells in 0.1 mL of PBS. Treatments were started when the mean tumor size reached approximately 80-120 mm^3 (around 100 mm^3). The administration of the indole compounds and the animal number in each study group are shown in the study design. The date of tumor cell inoculation was denoted as day 0.
(§5) The indole compounds were dissolved in DMSO at the final concentration of 26.7 mg/ml and stored at room temperature.
(§6) Randomization of animals was started when the mean tumor size reached approximately 90 mm^3 to form the mouse study groups. The randomization was performed based on “Matched distribution” method using the multi-task method (StudyDirector™ software, version 3.1.399.19)/randomized block design. The mouse groups (ten in each group) were treated with vehicle (DMSO) or the indole compounds at a dose of 40 mg/kg by i.p. injection, QD for 28 days or longer.
(§7) After tumor cell inoculation, the mice were checked daily for morbidity and mortality. During routine monitoring, the mice were checked for tumor growth and any effects of the treatment on behavior such as mobility, food and water consumption, body weight gain/loss (body weights were measured twice per week after randomization), eye/hair matting, and any other abnormalities. Mortality and observed clinical signs were recorded for individual mice in detail.
(§8) Tumor volumes were measured twice per week in two dimensions using a caliper, and the volume was expressed in mm^3 using the formula: V=(L×W×W)/2, where V is tumor volume, L is tumor length (the longest tumor dimension) and W is tumor width (the longest tumor dimension perpendicular to L). Dosing as well as tumor and body weight measurements was conducted in a Laminar Flow Cabinet. The body weights and tumor volumes were measured by using StudyDirector™ software (version 3.1.399.19). Dosing Holiday
Tumor growth inhibition percentage (TGI %) is an indicator for antitumor activity of a drug compound, and expressed as: TGI (%)=100×(1−T/C), where T and C are the mean tumor volume (or weight) of the treated and control groups, respectively, on a given day. Statistical analysis of the difference in mean tumor volume (MTV) among the groups was conducted using the data collected on the day when the MTV of the vehicle group reached the humane endpoints, so that TGI could be derived for all or most mice enrolled in the study.
In Studies 1 and 3, the anti-tumor activity of ARI-001 in parallel with ARI-002 at 160 mg/kg (mpk), and the anti-tumor activity of ARI-087 in parallel with ARI-002 at 40 mpk were assessed using the EMT-6, Pan02, A20, and LL/2 models. Because EMT-6 provides a fast-growing model that enables relatively quick differentiation of performance between compounds, this syngeneic mouse tumor model was chosen for the other studies. In Study 2, the anti-tumor activity of ARI-002 was compared with that of ARI-004 at 10, 40, and 80 mpk. In Study 4, the anti-tumor activity of ARI-087 was compared with that of ARI-140. In Study 5, the anti-tumor activity of ARI-087 was evaluated in parallel with ARI-143 and ARI-149 at 40 mpk. […]

[2] = In vivo pharmacokinetic study in Sprague-Dawley rats; conditions: rat; for bioavailability: Sprague-Dawley, plasma, po, 10 mg/kg; for IV AUCinf, times higher than ARI-002 / plasma clearance, % of that of ARI-002 / IV PK profile compared to ARI-001, ARI-002, and ARI-004, in words: IV; for % of Hepatisc Blood Flow: IV (2 mg/kg)
Procedure: This example describes pharmacokinetic (PK) studies of the various indole compounds described herein in rats, a rodent species widely used for pre-clinical toxicology evaluation. In the present studies, the test compounds were given to groups of Sprague-Dawley rats (N=3 in each group) intravenously (IV) at 2 mg/kg or orally (PO) at 10 mg/kg. IV doses were formulated in DMSO, while PO doses were formulated in a 50/50 mixture of PEG400 and Tween 80. Blood samples were collected at pre-dose and over a period of 24 hours post-dose. Plasma concentrations of the indole compounds were determined by HPLC.

[3] = tested on: hepatocytes; assay: Metabolite analysis in hepatocytes by high-resolution mass spectrometry; type: in vitro ADME; conditions: preliminary studies
Source text: It remains unclear whether halogen substitutions at the indole ring impact the activity and metabolic profiles of the indole compounds described herein.

[4] = tested on: LL/2 syngeneic mouse tumor model (lung cancer); assay: Anti-tumor activity, LL/2 syngeneic mouse tumor model; type: in vivo; conditions: Study 3, LL/2, 40 mpk i.p. QD, D28
Procedure: as §1, §2, §3, §4, §5, §6, §7, §8
(§9) Tumor growth inhibition percentage (TGI %) is an indicator for antitumor activity of a drug compound, and expressed as: TGI (%)=100×(1−T/C), where T and C are the mean tumor volume (or weight) of the treated and control groups, respectively, on a given day. […]
(§10) In Studies 1 and 3, the anti-tumor activity of ARI-001 in parallel with ARI-002 at 160 mg/kg (mpk), and the anti-tumor activity of ARI-087 in parallel with ARI-002 at 40 mpk were assessed using the EMT-6, Pan02, A20, and LL/2 models. […] In Study 5, the anti-tumor activity of ARI-087 was evaluated in parallel with ARI-143 and ARI-149 at 40 mpk. […]

[5] = tested on: A20 syngeneic mouse tumor model (B cell lymphoma); assay: Anti-tumor activity, A20 syngeneic mouse tumor model; type: in vivo; conditions: Study 3, A20, 40 mpk i.p. QD, D28
Procedure: as §1, §2, §3, §4, §5, §6, §7, §8, §9, §10

[6] = tested on: Pan02 syngeneic mouse tumor model (pancreatic cancer); assay: Anti-tumor activity, Pan02 syngeneic mouse tumor model; type: in vivo; conditions: Study 3, Pan02, 40 mpk i.p. QD, D60
Procedure: as §1, §2, §3, §4, §5
Randomization of animals was started when the mean tumor size reached approximately 90 mm^3 to form the mouse study groups. […]
as §7
as §8, with “Dosing as well as tumor and body weight measurements was conducted in a Laminar Flow Cabinet.” left out, “Dosing Holiday” left out
as §9
In Studies 1 and 3, the anti-tumor activity of ARI-001 in parallel with ARI-002 at 160 mg/kg (mpk), and the anti-tumor activity of ARI-087 in parallel with ARI-002 at 40 mpk were assessed using the EMT-6, Pan02, A20, and LL/2 models. […]

[7] = Mus musculus, EMT6, ip, 720 h, Study 5, EMT-6, 40 mpk i.p. QD, D30, read-out: TGI (tumor growth inhibition)
[8] = PO (10 mg/kg) vs IV (2 mg/kg), read-out: F % (bioavailability)
[9] = Mus musculus, EMT6, ip, 672 h, Study 4, EMT-6, 40 mpk i.p. QD, D28, read-out: TGI (tumor growth inhibition)
[10] = Mus musculus, EMT6, ip, 624 h, Study 6, EMT-6, 40 mpk i.p. QD, D26, read-out: TGI (tumor growth inhibition)

| SMILES | anti-tumor potency, in words [1] | inhibition in vivo at 40 mg/kg [1, 7] [%] | bioavailability [2, 8] [%] | % of Hepatisc Blood Flow [2] [%] | other results |
| --- | --- | --- | --- | --- | --- |
| Nc1nnc(-c2csc(C(=O)c3c[nH]c4cc(Cl)c(Cl)cc34)n2)o1 [ARI-120, (4-(5-amino-1,3,4-oxadiazol-2-yl)thiazol-2-yl)(5,6-dichloro-1H-indol-3-yl)methanone] | less anti-tumor potency than ARI-087 | 27.2 |  |  |  |
| CCC(=O)c1csc(C(=O)c2c[nH]c3cc(F)c(F)cc23)n1 [ARI-149, 1-(2-(5,6-difluoro-1H-indole-3-carbonyl)thiazol-4-yl)propan-1-one] |  | 42.7 | 6.8 | 13 | bioavailability ([2]; PO, read-out: absolute oral bioavailability, % of ARI-002): 62%; IV AUCinf, times higher than ARI-002 [2]: 2.3 times; plasma clearance, % of that of ARI-002 [2]: 50%; PO AUCinf, times higher than that of ARI-002 ([2]; PO): about 1.4 times |
| CCC(=O)c1csc(C(=O)c2c[nH]c3ccc(Cl)cc23)n1 [ARI-067, 1-(2-(5-chloro-1H-indole-3-carbonyl)thiazol-4-yl)propan-1-one] |  |  | 3.5 | 350 |  |
| CCC(=O)c1csc(C(=O)c2c[nH]c3c(F)cccc23)n1 [ARI-140, 1-(2-(7-fluoro-1H-indole-3-carbonyl)thiazol-4-yl)propan-1-one] |  |  |  |  | inhibition in vivo at 40 mg/kg [1, 9]: 30.6% |
| CCC(=O)c1csc(C(=O)c2c[nH]c3cc(F)ccc23)n1 [ARI-143, 1-(2-(6-fluoro-1H-indole-3-carbonyl)thiazol-4-yl)propan-1-one] | most potent ketone derivative | 65.9 | 19.3 | 19 | IV AUCinf, times higher than ARI-002 [2]: 1.5 times; plasma clearance, % of that of ARI-002 [2]: 74%; PO AUCinf, times higher than that of ARI-002 ([2]; PO): 2.6 times; absolute oral bioavailability, times higher than ARI-002 ([2]; PO): 1.8 times; tumor growth and survival, in words [1]: delay tumor growth and prolong survival; complete tumor regression (CR) ([1]; Study 5, by day 51): 2 out of 10; primary metabolites of the indole ring identified [3]: fewer primary metabolites of the indole ring |
| Nc1nnc(-c2csc(C(=O)c3c[nH]c4ccccc34)n2)s1 [ARI-090, (4-(5-amino-1,3,4-thiadiazol-2-yl)thiazol-2-yl)(1H-indol-3-yl)methanone] | less anti-tumor potency than ARI-087 |  |  |  | inhibition in vivo at 40 mg/kg [1, 10]: 30.1% |
| Nc1nnc(-c2csc(C(=O)c3c[nH]c4c(F)cccc34)n2)o1 [ARI-118, (4-(5-amino-1,3,4-oxadiazol-2-yl)thiazol-2-yl)(7-fluoro-1H-indol-3-yl)methanone] | superior anti-tumor activity than ARI-087 |  | 0.2 | 17 | IV PK profile compared to ARI-001, ARI-002, and ARI-004, in words [2]: improved IV PK profiles; tumor growth and survival, in words [1]: delay tumor growth and prolong survival; complete tumor regression (CR) ([1]; Study 4, by day 46): 1 out of 10; inhibition in vivo at 40 mg/kg [1, 9]: 54.5% |
| O=C(c1nc(-c2nnco2)cs1)c1c[nH]c2ccccc12 [ARI-056, (4-(1,3,4-oxadiazol-2-yl)thiazol-2-yl)(1H-indol-3-yl)methanone] | less anti-tumor potency than ARI-087 |  |  |  | inhibition in vivo at 40 mg/kg [1, 10]: 34.3% |
| NCc1nc(-c2csc(C(=O)c3c[nH]c4c(F)cccc34)n2)no1 [ARI-146, (4-(5-(aminomethyl)-1,2,4-oxadiazol-3-yl)thiazol-2-yl)(7-fluoro-1H-indol-3-yl)methanone] | less anti-tumor potency than ARI-087 | 23.2 |  |  |  |
| NCc1nnc(-c2csc(C(=O)c3c[nH]c4c(F)cccc34)n2)o1 [ARI-145, (4-(5-(aminomethyl)-1,3,4-oxadiazol-2-yl)thiazol-2-yl)(7-fluoro-1H-indol-3-yl)methanone] | less anti-tumor potency than ARI-087 | 10.5 |  |  |  |
| Nc1nnc(-c2csc(C(=O)c3c[nH]c4ccc(F)cc34)n2)o1 [ARI-148, (4-(5-amino-1,3,4-oxadiazol-2-yl)thiazol-2-yl)(5-fluoro-1H-indol-3-yl)methanone] | less anti-tumor potency than ARI-087 | 4.8 |  |  |  |
| Nc1nnc(-c2csc(C(=O)c3c[nH]c4ccccc34)n2)o1 [ARI-083, (4-(5-amino-1,3,4-oxadiazol-2-yl)thiazol-2-yl)(1H-indol-3-yl)methanone] |  |  | 1 | 45 | IV PK profile compared to ARI-001, ARI-002, and ARI-004, in words [2]: improved IV PK profiles; TGI (tumor growth inhibition) [4]: 24.0% D28; TGI (tumor growth inhibition) [5]: 22% D28; TGI (tumor growth inhibition) [6]: 2.7% D60; inhibition in vivo at 40 mg/kg ([1]; Mus musculus, EMT6, ip, 648 h, Study 3, EMT-6, 40 mpk i.p. QD, D27, read-out: TGI (tumor growth inhibition)): 21.2% |
| CNC(=O)c1csc(C(=O)c2c[nH]c3ccccc23)n1 [ARI-004] |  |  | 33.6 | 189 | inhibition in vivo at 10 mg/kg ([1]; Mus musculus, EMT6, 648 h, Study 2, EMT-6, 10 mpk, D27, read-out: TGI (tumor growth inhibition)): -38.2%; inhibition in vivo at 40 mg/kg ([1]; Mus musculus, EMT6, 648 h, Study 2, EMT-6, 40 mpk, D27, read-out: TGI (tumor growth inhibition)): 0.3%; inhibition in vivo at 80 mg/kg ([1]; Mus musculus, EMT6, 648 h, Study 2, EMT-6, 80 mpk, D27, read-out: TGI (tumor growth inhibition)): 15.8% |
